For 16 molecules, IC50 results are on record in patent publication US11254668B2, “Pyrazolo[1,5-A]pyrazin-4-yl and related derivatives” (Pfizer Inc., priority 2017, dated 2022).

What all share (format): biochemical
Common to all, as to details: JAK Caliper enzyme assay

One test deals with JAK2 (Homo sapiens (Human), UniProt O60674). In words: JAK Caliper Enzyme Assay at 1 mM ATP, JAK2. In outline: (§1)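 Recombinant human kinase domains phosphorylate a fluorescent synthetic peptide at 1 mM ATP and room temperature, with enzyme level and time tuned to 20–30% conversion before an EDTA stop. Microfluidic mobility-shift separation gives percent product from peak heights. Percent effect against plate controls (DMSO baseline) is plotted versus compound concentration.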

The next test deals with TYK2 (Homo sapiens (Human), UniProt P29597). As to the kind of experiment: JAK Caliper Enzyme Assay at 1 mM ATP, TYK2. A digest of the protocol: as §1
In the next test the target is JAK1 (Homo sapiens (Human), UniProt P23458). In words: JAK Caliper Enzyme Assay at 1 mM ATP, JAK1. In outline: (§2)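 IC50 (nM) derived from percent conversion of fluorescently labelled peptide, measured by Caliper LabChip mobility-shift separation after EDTA stop. Each JAK family kinase domain (human, recombinant) run at 1 mM ATP and room temperature, conditions set to 20-30% product; DMSO wells define uninhibited baseline.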

The target in another test is JAK3 (Homo sapiens (Human), UniProt P52333). In words: JAK Caliper Enzyme Assay at 1 mM ATP, JAK3. In outline:
as §2

Chain of TYK2 (P29597 897-1176): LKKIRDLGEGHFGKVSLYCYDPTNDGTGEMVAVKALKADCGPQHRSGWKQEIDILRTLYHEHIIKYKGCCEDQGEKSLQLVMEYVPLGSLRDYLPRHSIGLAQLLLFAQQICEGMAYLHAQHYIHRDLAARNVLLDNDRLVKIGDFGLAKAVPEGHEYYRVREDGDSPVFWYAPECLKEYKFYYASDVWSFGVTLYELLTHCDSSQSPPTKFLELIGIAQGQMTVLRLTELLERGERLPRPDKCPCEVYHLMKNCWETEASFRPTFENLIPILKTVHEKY
Chain of JAK2 (O60674 849-1124): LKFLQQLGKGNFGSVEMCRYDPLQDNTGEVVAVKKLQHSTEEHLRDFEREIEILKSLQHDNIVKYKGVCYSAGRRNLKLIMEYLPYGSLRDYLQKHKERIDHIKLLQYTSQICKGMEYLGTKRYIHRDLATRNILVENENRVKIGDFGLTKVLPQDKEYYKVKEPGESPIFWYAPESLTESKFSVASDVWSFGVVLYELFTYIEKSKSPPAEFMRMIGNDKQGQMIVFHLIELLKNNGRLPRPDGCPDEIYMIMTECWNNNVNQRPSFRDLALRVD
Chain of JAK1 (P23458 875-1153): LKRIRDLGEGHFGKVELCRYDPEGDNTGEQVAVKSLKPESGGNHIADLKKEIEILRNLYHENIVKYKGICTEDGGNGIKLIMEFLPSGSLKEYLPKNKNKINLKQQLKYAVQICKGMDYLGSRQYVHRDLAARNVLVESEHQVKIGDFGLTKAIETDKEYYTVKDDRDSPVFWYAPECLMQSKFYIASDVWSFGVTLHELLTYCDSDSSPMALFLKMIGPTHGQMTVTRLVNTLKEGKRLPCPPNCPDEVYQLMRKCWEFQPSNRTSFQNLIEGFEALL
Chain of JAK3 (P52333 822-1111): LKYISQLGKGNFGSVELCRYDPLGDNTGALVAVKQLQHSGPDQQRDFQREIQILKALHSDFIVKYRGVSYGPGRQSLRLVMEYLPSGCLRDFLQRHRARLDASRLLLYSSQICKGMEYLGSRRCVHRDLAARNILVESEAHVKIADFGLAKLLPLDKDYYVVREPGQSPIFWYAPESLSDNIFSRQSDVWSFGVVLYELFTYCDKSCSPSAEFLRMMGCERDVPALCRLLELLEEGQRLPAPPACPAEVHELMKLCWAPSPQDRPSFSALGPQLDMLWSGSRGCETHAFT

As to `N#CC[C@]1(n2ncc(-c3cc(-c4ccc(N)nn4)cc4ncccc34)n2)C[C@@H](C#N)C1` [Example 400, cis-3-{4-[7-(6-aminopyridazin-3-yl)quinolin-5-yl]-2H-1,2,3-triazol-2-yl}-3-(cyanomethyl)cyclobutanecarbonitrile], the half-inhibitory concentration (IC50) was 67 nM at JAK2, 16 nM on TYK2, 748 nM on JAK1 and 9130 nM on JAK3.

Take `N#CC[C@]1(n2ncc(-c3cc(-c4ccc(N)nn4)cc4ncccc34)n2)C[C@H](C#N)C1` [Example 401, trans-3-{4-[7-(6-aminopyridazin-3-yl)quinolin-5-yl]-2H-1,2,3-triazol-2-yl}-3-(cyanomethyl)cyclobutanecarbonitrile]: the IC50 is 369 nM on JAK2, 55 nM at TYK2, 3700 nM on JAK1 and > 10000 nM on JAK3.

Take `Cc1cncc(-c2cc(-c3cnn([C@]4(CC#N)C[C@H](C#N)C4)n3)c3cccnc3c2)n1` [Example 402, cis-3-(cyanomethyl)-3-{4-[7-(6-methylpyrazin-2-yl)quinolin-5-yl]-2H-1,2,3-triazol-2-yl}cyclobutanecarbonitrile]: the IC50 at JAK2 was 6290 nM; at TYK2, 2530 nM; on JAK1, > 10000 nM; on JAK3, > 10000 nM.

Turning to `Cc1cncc(-c2cc(-c3cnn([C@]4(CC#N)C[C@@H](C#N)C4)n3)c3cccnc3c2)n1` [Example 403, trans-3-(cyanomethyl)-3-{4-[7-(6-methylpyrazin-2-yl)quinolin-5-yl]-2H-1,2,3-triazol-2-yl}cyclobutanecarbonitrile], the half-maximal inhibitory concentration (IC50) was > 10000 nM on JAK2, 7190 nM on TYK2, > 10000 nM on JAK1 and > 10000 nM at JAK3.

Regarding `Cc1ncc(N)nc1-c1cc(-c2cnn([C@]3(CC#N)C[C@H](C#N)C3)n2)c2cccnc2c1` [Example 404, cis-3-{4-[7-(6-amino-3-methylpyrazin-2-yl)quinolin-5-yl]-2H-1,2,3-triazol-2-yl}-3-(cyanomethyl)cyclobutanecarbonitrile], the half-inhibitory concentration (IC50) is > 10000 nM on JAK2, 7400 nM at TYK2, > 10000 nM at JAK1 and > 10000 nM on JAK3.

For the molecule `COc1ncc(-c2cc(-c3cnn(C4(CC#N)CN(S(C)(=O)=O)C4)n3)c3cccnc3c2)cn1` [Example 405, [3-{4-[7-(2-methoxypyrimidin-5-yl)quinolin-5-yl]-2H-1,2,3-triazol-2-yl}-1-(methylsulfonyl)azetidin-3-yl]acetonitrile], the IC50 on JAK2 is > 10000 nM; at TYK2, 3060 nM; on JAK1, > 10000 nM; on JAK3 it was > 10000 nM.

With `N#CC[C@]1(n2ncc(-c3cc(-c4ncc(OCCO)cn4)cc4ncccc34)n2)C[C@@H](C#N)C1` [Example 406, cis-3-(cyanomethyl)-3-(4-{7-[5-(2-hydroxyethoxy)pyrimidin-2-yl]quinolin-5-yl}-2H-1,2,3-triazol-2-yl)cyclobutanecarbonitrile], the IC50 is > 10000 nM on JAK2, 2150 nM on TYK2, > 10000 nM on JAK1 and > 10000 nM at JAK3.

For the molecule `COc1nc(-c2cc(-c3cnn([C@]4(CC#N)C[C@H](C#N)C4)n3)c3cccnc3c2)cnc1N` [Example 407, cis-3-{4-[7-(5-amino-6-methoxypyrazin-2-yl)quinolin-5-yl]-2H-1,2,3-triazol-2-yl}-3-(cyanomethyl)cyclobutanecarbonitrile], the 50% inhibitory concentration (IC50) was 1010 nM on JAK2, 257 nM at TYK2, 1200 nM on JAK1 and > 10000 nM at JAK3.

With `COc1nc(-c2cc(-c3cnn([C@]4(CC#N)C[C@@H](C#N)C4)n3)c3cccnc3c2)cnc1N` [Example 408, trans-3-{4-[7-(5-amino-6-methontpyrazin-2-yl)quinolin-5-yl]-2H-1,2,3-triazol-2-yl}-3-(cyanomethyl)cyclobutanecarbonitrile], the concentration for half-maximal inhibition (IC50) was > 10000 nM on JAK2, 2090 nM on TYK2, > 10000 nM at JAK1 and > 10000 nM on JAK3.

Consider `CS(=O)(=O)N1CC(CC#N)(n2ncc(-c3cc(-c4ccc(=O)[nH]c4)cc4ncccc34)n2)C1` [Example 409, [1-(methylsulfonyl)-3-{4-[7-(6-oxo-1,6-dihydropyridin-3-yl)quinolin-5-yl]-2H-1,2,3-triazol-2-yl}azetidin-3-yl]acetonitrile], for which the IC50 on JAK2 was 982 nM; at TYK2 it was 53 nM; on JAK1, 2610 nM; at JAK3, > 10000 nM.

For the molecule `N#CC[C@]1(n2ncc(-c3cc(-c4cc[nH]c(=O)c4)cc4ncccc34)n2)C[C@@H](C#N)C1` [Example 410, cis-3-(cyanomethyl)-3-{4-[7-(2-oxo-1,2-dihydropyridin-4-yl)quinolin-5-yl]-2H-1,2,3-triazol-2-yl}cyclobutanecarbonitrile], the IC50 was 207 nM at JAK2, 39 nM on TYK2, 2340 nM on JAK1 and > 10000 nM at JAK3.

As to `N#CC[C@]1(n2ncc(-c3cc(-c4cc[nH]c(=O)c4)cc4ncccc34)n2)C[C@H](C#N)C1` [Example 411, trans-3-(cyanomethyl)-3-{4-[7-(2-oxo-1,2-dihydropyridin-4-yl)quinolin-5-yl]-2H-1,2,3-triazol-2-yl}cyclobutanecarbonitrile], the IC50 at JAK2 was 1690 nM; on TYK2, 257 nM; on JAK1, > 10000 nM; at JAK3, > 10000 nM.

On to `Cn1cc(-c2cc(-c3cnn(C4(CC#N)CN(S(C)(=O)=O)C4)n3)c3cccnc3c2)ccc1=O` [Example 412, [3-{4-[7-(1-methyl-6-oxo-1,6-dihydropyridin-3-yl)quinolin-5-yl]-2H-1,2,3-triazol-2-yl}-1-(methylsulfonyl)azetidin-3-yl]acetonitrile], for which the IC50 on JAK2 is 1290 nM; at TYK2 it was 167 nM; at JAK1, 3080 nM; on JAK3, > 10000 nM.

As for `CCn1cc(-c2cc(-c3cnn(C4(CC#N)CN(S(C)(=O)=O)C4)n3)c3cccnc3c2)ccc1=O` [Example 413, [3-{4-[7-(1-ethyl-6-oxo-1,6-dihydropyridin-3-yl)quinolin-5-yl]-2H-1,2,3-triazol-2-yl}-1-(methylsulfonyl)azetidin-3-yl]acetonitrile], the half-maximal inhibitory concentration (IC50) at JAK2 is 682 nM; at TYK2 it was 90 nM; at JAK1, 4020 nM; at JAK3, > 10000 nM.

For `CS(=O)(=O)N1CC(CC#N)(n2ncc(-c3cc(-c4c[nH]c(=O)[nH]c4=O)cc4ncccc34)n2)C1` [Example 414, [3-{4-[7-(2,4-dioxo-1,2,3,4-tetrahydropyrimidin-5-yl)quinolin-5-yl]-2H-1,2,3-triazol-2-yl}-1-(methylsulfonyl)azetidin-3-yl]acetonitrile], the IC50 is 6170 nM at JAK2, 276 nM at TYK2, > 10000 nM on JAK1 and > 10000 nM on JAK3.

With `N#CC[C@]1(n2ncc(-c3cc(-c4cnc5[nH]ccc5n4)cc4ncccc34)n2)C[C@@H](C#N)C1` [Example 416, cis-3-(cyanomethyl)-3-{4-[7-(5H-pyrrolo[2,3-b]pyrazin-2-yl)quinolin-5-yl]-2H-1,2,3-triazol-2-yl}cyclobutanecarbonitrile], the IC50 at JAK2 is 2300 nM; on TYK2, 696 nM; on JAK1, 3200 nM; on JAK3, > 10000 nM.
